Assay results as given in patent US20220002288A1, “MONOBACTAM COMPOUNDS AND USE THEREFOR” (priority 2018, published 2022).
Values after ≈ are worked out from the molar mass of the structure shown. Where a name gives a salt, the structure may show the parent alone. Read-outs that look alike come from different tables or passages of the source.

How the values were obtained:
Acinetobacter baumannii = assay: In vitro antibacterial activity, minimum inhibitory concentration (MIC); type: cell-based
Procedure: (§1) Compounds: The compounds prepared in the above examples and comparative examples. All test compounds were dissolved and diluted with DMSO, and the final concentrations were prepared as 64, 32, 16, 8, 4, 2, 1, 0.5, 0.25, 0.125, 0.0625 μg/mL in the experiment.
(§2) Bacterial strains: 6 strains of Acinetobacter baumannii (codenames: HDBAB-YK4, HDBAB-YK7, HDBAB-YK12, HDBAB-YK16, HDBAB_OXA_7, ATCC 19606), 2 strains of Pseudomonas aeruginosa (codenames: HDBPA-YK9, HDBPA)-YK15), 1 strain of Escherichia coli (codename: CLB30048), all provided by HD Biosciences (Shanghai) Co., Ltd.
(§3) Medium: Trypticase soy agar (TSA) (BD BBL 211043), and Cation-adjusted Mueller Hinton broth (CAMHB) (BD BBL212322).
(§4) The bacteria used for the minimum inhibitory concentration (MIC) test were stored frozen at −80° C., and needed 2 days to recover before use. A small amount of frozen bacteria was scraped with a sterile inoculation loop for streak inoculation on a TSA solid medium petri dish. The dish was placed in an ordinary incubator at 35±2° C. for 20-24 hours. 5-10 Colonies with similar morphologies were picked from the above-mentioned petri dish with a sterile inoculating loop for streak inoculation again on a TSA solid medium petri dish. The dish was then placed in an ordinary incubator at 35±2° C. for 20-24 hours.
(§5) 1.02×CAMHB liquid medium was taken out from a 4° C. refrigerator and placed at room temperature for preheating. 5-10 Individual bacterial colonies were picked from the solid petri dish of the above Section 2.1 and re-suspended in 500 μL of 0.9% NaCl, and then the OD600 was adjusted to 0.1-0.15 with a spectrophotometer. Then the bacteria were diluted 400 times with 1.02×CAMHB (two-step dilution method: firstly diluting 10 times, then diluting 40 times).
(§6) The number of inoculated bacteria can be obtained by counting the colonies on the petri dish (see Section 2.4).
(§7) One compound was arranged in each row of a 96-well test plate: the highest test concentration for each compound was 64 μg/mL, which was diluted by a factor of two.
(§8) Growth control (GC): 1.02×CAMHB and dimethyl sulfoxide (DMSO) containing bacterial inoculum, no compound.
(§9) Sterile control (SC): Containing 1.02×CAMHB and DMSO, no compound.
(§10) All test compounds were dissolved and diluted with DMSO. 50 μL of 3.2 mg/mL of each test compound was transferred to the initial well (A1-H1) of the dilution plate, and then 25 μL of DMSO was transferred to other wells. The test compounds were sequentially diluted by a factor of 2 from column 1 to column 11 (i.e. drawing 25 μL of test compound from column 1 to column 2 and mixing well, and then drawing 25 μL of test compound from column 2 to column 3 and mixing well, and then drawing 25 μL of test compound from column 3 to column 4 and mixing well, and so on, until diluting to column 11).
(§11) 2 μL of the compound was transferred from the compound plate to the corresponding well of the test plate. Meanwhile, 2 μL of 100% DMSO was transferred to the compound-free wells (the GC and SC wells).
(§12) 98 μL of the corresponding bacterial inoculum was added to the test plate (except for the SC well).
(§13) 98 μL of 1.02×CAMHB medium was added to the SC well of the test plate.
(§14) After the system was added, the test plate was covered with a sterile lid, centrifuged at 800 rpm for 30 seconds, then shaken on a plate shaker at 400 rpm for 1 minute for mixing well, and then placed in an incubator at 35±2° C. for 20 hours.
(§15) The inoculated bacteria were gradient diluted by 10 folds with the liquid medium, from 10^−1 to 10^−3. 100 μL of the above bacterial dilution was spread evenly on a TSA petri dish, 2 replicates for each dilution. After the medium was absorbed by TSA for 10 minutes, the petri dishes were reversed and incubated in an incubator at 35±2° C. for 24 hours.
(§16) A compound management system was turned on to check whether the barcode and compound arrangement of each test plate were correct. […]

Escherichia coli = assay: as above; type: cell-based
Procedure: as §1, §2, §3, §4, §5, §6, §7, §8, §9, §10, §11, §12, §13, §14, §15, §16

Pseudomonas aeruginosa = assay: as above; type: cell-based
Procedure: as §1, §2, §3, §4, §5, §6, §7, §8, §9, §10, §11, §12, §13, §14, §15, §16

[1] = system: Acinetobacter baumannii, Pseudomonas aeruginosa, and Escherichia coli; assay: In vitro antibacterial activity, summary statements over all strains of Experimental Example 1; type: cell-based; conditions: method of Experimental Example 1
Procedure: as §1, §2
The minimum inhibitory concentration (MIC) of each compound was recorded according to the guidelines of the Clinical and Laboratory Standards Institute.

[2] = Pharmacokinetics of the compounds in mice; type: in vivo, BALB/c mice; conditions: mouse, plasma, male BALB/c mice, single intravenous dose 2 mg/kg, plasma; for Vd: male, BALB/c, iv, 2 mg/kg
From the text: Animals: male BALB/c mice, SPF grade, purchased from Changzhou Cavens Experimental Animal Co., Ltd.; 16-24 g, license number: SCXK (Su)2016-0010; 2 to 3 days of adaptation period were given before the experiment.
Instruments: API 4500 High Performance Liquid Chromatograph Coupled Triple Quadrupole Mass Spectrometer, and Analyst QS A01.01 Chromatography Workstation were both purchased from AB SCIEX of the United States; Milli-Q ultrapure water device was purchased from Millipore; CF16R XII desktop high-speed refrigerated centrifuge was purchased From Hitachi Company; Qilinbeier Vortex-5 oscillator was purchased from IKA Company of German; electric heating constant-temperature water bath was purchased from Changzhou Guohua Electric Appliance Co., Ltd.; electric pipette was purchased from Thermo Company of American; and microanalysis balance was purchased from Shanghai Mettler Co., Ltd.
2 mg of the test compound was weighed, added to physiological saline, vortexed for 2 min, and ultrasonicated for 3 min, to prepare a test solution with a concentration of 0.2 mg/mL for intravenous administration.
A single dose of 2 mg/kg of the test compound was administered to BALB/c mice via the tail vein, the dose volume being 0.1 mL/10 g. At 5 min, 15 min, 30 min, 1 h, 2 h, 4 h after administration, blood samples were collected from the orbital venous plexus into heparinized EP tubes (0.6 mL), which were temporarily placed on crushed ice.
The samples were centrifuged at 8000 rpm for 5 min. 15 μL of upper plasma were transferred to a 96-well plate. 150 μL of methanol:acetonitrile (v/v=1:1) (containing 20 ng/mL tolbutamide) was added to 15 μL of plasma, shaken for 3 min, and centrifuged at 4500 rpm for 5 min. 100 μL of supernatant was taken to a 2 mL deep well plate. 100 μL of diluent (pure water) was added. The samples were shaken for 3 min, and centrifuged at 4500 rpm for 5 min. 180 μL of the supernatant was transferred to the sample plate. The content of the compound in the supernatant sample was analyzed by LC-MS/MS, and various pharmacokinetic parameters were calculated with WinNonlin software.

SMILES	MIC (Acinetobacter baumannii; ATCC19606, strain ATCC 19606)	MIC (Acinetobacter baumannii; strain HDBAB-YK4)	MIC (Acinetobacter baumannii; strain HDBAB-YK7)	MIC (Acinetobacter baumannii; strain HDBAB-YK12)	MIC (Acinetobacter baumannii; strain HDBAB-YK16)	MIC (Acinetobacter baumannii; strain HDBAB_OXA_7)	MIC (Escherichia coli; strain CLB30048, read-out: MIC)	MIC (Pseudomonas aeruginosa; strain HDBPA-YK9)	MIC (Pseudomonas aeruginosa; strain HDBPA-YK15)	MIC (Escherichia coli)	in vitro antibacterial activity (in words) [1]	Vd ([2]; read-out: VSS)	Vd ([2]; read-out: Vd)	AUC(0-inf) [2]	AUC(0-t) [2]	C0 [2]	clearance [2]	half-life [2]
CC1(C)[C@H](NC(=O)/C(=N\O[C@@H](COc2ccc(-c3ccc(NC(=O)[C@@H](N)CO)nc3)cc2)C(=O)O)c2csc(N)n2)C(=O)N1OS(=O)(=O)O [Example 7]	64 µg/mL (≈ 88.6 µM)	> 64 µg/mL	> 64 µg/mL	16 µg/mL (≈ 22.1 µM)	> 64 µg/mL	> 64 µg/mL	64 µg/mL (≈ 88.6 µM)	32 µg/mL (≈ 44.3 µM)	> 64 µg/mL	–	–	–	–	–	–	–	–	–
CC1(C)[C@H](NC(=O)/C(=N\O[C@@H](COc2ccc(-c3ccc(NC(=O)[C@@H](N)CCCCN)nc3)cc2)C(=O)O)c2csc(N)n2)C(=O)N1OS(=O)(=O)O [Example 5, (S)-2-((((Z)-1-(2-aminothiazol-4-yl)-2-(((S)-2,2-dimethyl-4-oxo-1-(sulfonyloxy)azetidin-3-yl)amino)-2-oxoethylene)amino)oxy)-3-(4-(6-((S)-2,6-diaminohexanamido)pyridin-3-yl)phenoxy)propionic Acid]	8 µg/mL (≈ 10.5 µM)	32 µg/mL (≈ 41.9 µM)	> 64 µg/mL	4 µg/mL (≈ 5.24 µM)	64 µg/mL (≈ 83.8 µM)	16 µg/mL (≈ 20.9 µM)	8 µg/mL (≈ 10.5 µM)	32 µg/mL (≈ 41.9 µM)	> 64 µg/mL	–	–	–	–	–	–	–	–	–
C[n+]1cc(-c2ccc(OC[C@H](O/N=C(\C(=O)N[C@@H]3C(=O)N(OS(=O)(=O)[O-])C3(C)C)c3csc(N)n3)C(=O)O)cc2)ccc1NC(=O)[C@@H](N)CO [Example 6]	64 µg/mL (≈ 86.9 µM)	32 µg/mL (≈ 43.4 µM)	64 µg/mL (≈ 86.9 µM)	4 µg/mL (≈ 5.43 µM)	> 64 µg/mL	32 µg/mL (≈ 43.4 µM)	32 µg/mL (≈ 43.4 µM)	64 µg/mL (≈ 86.9 µM)	> 64 µg/mL	–	–	–	–	–	–	–	–	–
CC1(C)[C@H](NC(=O)/C(=N\O[C@@H](COc2ccc(NC(=O)c3cn(CCCN)[n+](CC4CNC4)c3)cc2)C(=O)O)c2csc(N)n2)C(=O)N1OS(=O)(=O)[O-] [Example 2, (S)-3-((Z)-2-(((S)-2-(4-(1-(3-aminopropyl)-2-(azetidin-3-ylmethyl)-1H-pyrazol-2-ium-4-carboxamido)phenoxy)-1-carboxyethoxy)imino)-2-(2-aminothiazol-4-yl)acetylamido)-2,2-dimethyl-4-oxoazetidin-1-yl Sulfate]	2 µg/mL	2 µg/mL	0.625 µg/mL	2 µg/mL	8 µg/mL	4 µg/mL	–	4 µg/mL	> 64 µg/mL	1 µg/mL	excellent antibacterial activity	–	–	–	–	–	–	–
C[n+]1cc(-c2ccc(OC[C@H](O/N=C(\C(=O)N[C@@H]3C(=O)N(OS(=O)(=O)[O-])C3(C)C)c3csc(N)n3)C(=O)O)cc2)ccc1NC(=O)[C@@H](N)CCCCN [Example 4, (S)-3-((Z)-2-(2-aminothiazol-4-yl)-2-(((S)-1-carboxy-2-(4-(6-((S)-2,6-diaminohexanamido)-1-methylpyridin-1-ium-3-yl)phenoxy)ethoxy)imino)acetylamino)-2,2-dimethyl-4-oxoazetidin-1-yl Sulfate]	2 µg/mL	2 µg/mL	2 µg/mL	4 µg/mL	32 µg/mL	16 µg/mL	8 µg/mL	16 µg/mL	> 64 µg/mL	–	–	0.73 L/kg	0.88 L/kg	813 ng·h/mL	751 ng·h/mL	3010 ng/mL	42.8 mL/min/kg	13.8 min
CC1(C)[C@H](NC(=O)/C(=N\O[C@@H](CCCOc2ccc(-c3cn(CCCN)[n+](CC4CNC4)c3)cc2)C(=O)O)c2csc(N)n2)C(=O)N1OS(=O)(=O)[O-] [Example 10, (S)-3-((Z)-2-(((S)-4-(4-(1-(3-aminopropyl)-2-(azetidin-3-ylmethyl)-1H-pyrazol-2-ium-4-yl)phenoxy)-1-carboxybutoxy)imino)-2-(2-aminothiazol-4-yl)acetylamino)-2,2-dimethyl-4-oxoazetidin-1-yl Sulfate]	4 µg/mL	8 µg/mL	0.5 µg/mL	8 µg/mL	16 µg/mL	8 µg/mL	1 µg/mL	8 µg/mL	32 µg/mL	–	–	–	–	–	–	–	–	–
C[n+]1cc(-c2ccc(OC[C@H](O/N=C(\C(=O)N[C@@H]3C(=O)N(OS(=O)(=O)[O-])C3(C)C)c3csc(N)n3)C(=O)O)cc2)ccc1NC(=O)[C@@H](N)CCN [Example 9]	2 µg/mL (≈ 2.67 µM)	2 µg/mL (≈ 2.67 µM)	0.25 µg/mL (≈ 0.333 µM)	1 µg/mL (≈ 1.33 µM)	8 µg/mL (≈ 10.7 µM)	8 µg/mL (≈ 10.7 µM)	2 µg/mL (≈ 2.67 µM)	8 µg/mL (≈ 10.7 µM)	> 64 µg/mL	–	excellent antibacterial activity	–	–	–	–	–	–	–
C[n+]1cc(-c2ccc(OC[C@H](O/N=C(\C(=O)N[C@@H]3C(=O)N(OS(=O)(=O)[O-])C3(C)C)c3csc(N)n3)C(=O)O)cc2)ccc1NC(=O)[C@H](N)CCCCN [Example 8]	2 µg/mL (≈ 2.57 µM)	4 µg/mL (≈ 5.14 µM)	1 µg/mL (≈ 1.29 µM)	2 µg/mL (≈ 2.57 µM)	16 µg/mL (≈ 20.6 µM)	8 µg/mL (≈ 10.3 µM)	8 µg/mL (≈ 10.3 µM)	16 µg/mL (≈ 20.6 µM)	> 64 µg/mL	–	–	–	–	–	–	–	–	–
CC1(C)[C@H](NC(=O)/C(=N\O[C@@H](COc2ccc(-c3ccc4[nH]c(CN)nc4c3)cc2)C(=O)O)c2csc(N)n2)C(=O)N1OS(=O)(=O)O [Example 11, (S)-3-(4-(2-(aminomethyl)-1H-benzo[d]imidazol-5-yl)phenoxy)-2-((((Z)-1-(2-aminothiazol-4-yl)-2-(((S)-2,2-dimethyl-4-oxo-1-(sulfonyloxy)azetidin-3-yl)amino)-2-oxoethylene)amino)oxy)propionic Acid]	> 64 µg/mL	> 64 µg/mL	> 64 µg/mL	16 µg/mL (≈ 23.2 µM)	> 64 µg/mL	> 64 µg/mL	32 µg/mL (≈ 46.5 µM)	32 µg/mL (≈ 46.5 µM)	> 64 µg/mL	–	–	–	–	–	–	–	–	–
